From patent US4639433A, “Glycopeptide derivatives” (Eli Lilly and Company, priority 1985, dated 1987)
In brackets after ≈: the same amount, converted by molar mass.

Key:
Settings in all cases: agar dilution
[1] = tested on: Haemophilus influenzae 76
[2] = tested on: Haemophilus influenzae C.L.
[3] = tested on: Staphylococcus epidermidis EPI1
[4] = tested on: Staphylococcus epidermidis 222
[5] = tested on: Staphylococcus aureus X400
[6] = tested on: Staphylococcus aureus V41
[7] = tested on: Streptococcus pyogenes C203
Escherichia coli TEM = tested on: Escherichia coli TEM
[8] = tested on: Klebsiella pneumoniae X26
[9] = tested on: Streptococcus sp. group D 2041
[10] = tested on: Streptococcus pneumoniae Park 1
[11] = tested on: Klebsiella pneumoniae KAE
[12] = tested on: Staphylococcus aureus NRRL B313
[13] = tested on: Staphylococcus aureus S13E
[14] = tested on: Streptococcus faecium ATCC 9790
Escherichia coli N10 = tested on: Escherichia coli N10
[15] = tested on: Klebsiella pneumoniae X68
Escherichia coli EC14 = tested on: Escherichia coli EC14

SMILES	MIC [1]	MIC [2]	MIC [3]	MIC [4]	MIC [5]	MIC [6]	MIC [7]	MIC (Escherichia coli TEM)	MIC [8]	MIC [9]	MIC [10]	MIC [11]	MIC [12]	MIC [13]	MIC [14]	MIC (Escherichia coli N10)	MIC [15]	MIC (Escherichia coli EC14)
CCCCCCCC(=O)N(C)C(CC(C)C)C(=O)NC1C(=O)NC(CC(N)=O)C(=O)NC2C(=O)NC3C(=O)NC(C(=O)NC(C(=O)O)c4cc(O)cc(O)c4-c4cc3ccc4O)C(O)c3ccc(c(Cl)c3)Oc3cc2cc(c3OC2OC(CO)C(O)C(O)C2OC2CC(C)(N)C(O)C(C)O2)Oc2ccc(cc2Cl)C1O (stereo not drawn) [Compound 4, N^leu --(1-oxo-n-octyl)vancomycin]	-- (not active at 128 mcg/ml)	-- (not active at 128 mcg/ml)	32 µg/mL (≈ 20.3 µM)	16 µg/mL (≈ 10.2 µM)	8 µg/mL (≈ 5.08 µM)	8 µg/mL (≈ 5.08 µM)	4 µg/mL (≈ 2.54 µM)	-- (not active at 128 mcg/ml)	-- (not active at 128 mcg/ml)	16 µg/mL (≈ 10.2 µM)	2 µg/mL (≈ 1.27 µM)	-- (not active at 128 mcg/ml)	8 µg/mL (≈ 5.08 µM)	8 µg/mL (≈ 5.08 µM)	8 µg/mL (≈ 5.08 µM)	-- (not active at 128 mcg/ml)	-- (not active at 128 mcg/ml)	-- (not active at 128 mcg/ml)
CCCCCCCC(=O)NC1(C)CC(OC2C(Oc3c4cc5cc3Oc3ccc(cc3Cl)C(O)C(NC(=O)C(CC(C)C)N(C)C(=O)CCCCCCC)C(=O)NC(CC(N)=O)C(=O)NC5C(=O)NC3C(=O)NC(C(=O)NC(C(=O)O)c5cc(O)cc(O)c5-c5cc3ccc5O)C(O)c3ccc(c(Cl)c3)O4)OC(CO)C(O)C2O)OC(C)C1O (stereo not drawn) [Compound 5, N^van,N^leu --di(1-oxo-n-octyl)vancomycin]	-- (not active at 128 mcg/ml)	-- (not active at 128 mcg/ml)	-- (not active at 128 mcg/ml)	64 µg/mL (≈ 37.6 µM)	32 µg/mL (≈ 18.8 µM)	32 µg/mL (≈ 18.8 µM)	32 µg/mL (≈ 18.8 µM)	-- (not active at 128 mcg/ml)	-- (not active at 128 mcg/ml)	32 µg/mL (≈ 18.8 µM)	32 µg/mL (≈ 18.8 µM)	-- (not active at 128 mcg/ml)	32 µg/mL (≈ 18.8 µM)	32 µg/mL (≈ 18.8 µM)	32 µg/mL (≈ 18.8 µM)	-- (not active at 128 mcg/ml)	-- (not active at 128 mcg/ml)	-- (not active at 128 mcg/ml)
CCCCCCCCCC(=O)NC1(C)CC(OC2C(Oc3c4cc5cc3Oc3ccc(cc3Cl)C(O)C(NC(=O)C(CC(C)C)N(C)C(=O)CCCCCCCCC)C(=O)NC(CC(N)=O)C(=O)NC5C(=O)NC3C(=O)NC(C(=O)NC(C(=O)O)c5cc(O)cc(O)c5-c5cc3ccc5O)C(O)c3ccc(c(Cl)c3)O4)OC(CO)C(O)C2O)OC(C)C1O (stereo not drawn) [Compound 8, N^van,N^leu-di(1-oxo-n-decyl)vancomycin]	-- (not active at 128 mcg/ml)	-- (not active at 128 mcg/ml)	32 µg/mL (≈ 18.2 µM)	8 µg/mL (≈ 4.55 µM)	4 µg/mL (≈ 2.28 µM)	4 µg/mL (≈ 2.28 µM)	4 µg/mL (≈ 2.28 µM)	-- (not active at 128 mcg/ml)	-- (not active at 128 mcg/ml)	8 µg/mL (≈ 4.55 µM)	16 µg/mL (≈ 9.1 µM)	-- (not active at 128 mcg/ml)	2 µg/mL (≈ 1.14 µM)	8 µg/mL (≈ 4.55 µM)	8 µg/mL (≈ 4.55 µM)	-- (not active at 128 mcg/ml)	-- (not active at 128 mcg/ml)	-- (not active at 128 mcg/ml)
C=CCCCCCCCCC(=O)N(C)C(CC(C)C)C(=O)NC1C(=O)NC(CC(N)=O)C(=O)NC2C(=O)NC3C(=O)NC(C(=O)NC(C(=O)O)c4cc(O)cc(O)c4-c4cc3ccc4O)C(O)c3ccc(c(Cl)c3)Oc3cc2cc(c3OC2OC(CO)C(O)C(O)C2OC2CC(C)(N)C(O)C(C)O2)Oc2ccc(cc2Cl)C1O (stereo not drawn) [Compound 10, N^leu --(1-oxo-10-n-decenyl)vancomycin]	-- (not active at 128 mcg/ml)	-- (not active at 128 mcg/ml)	32 µg/mL (≈ 19.8 µM)	8 µg/mL (≈ 4.95 µM)	4 µg/mL (≈ 2.48 µM)	4 µg/mL (≈ 2.48 µM)	1 µg/mL (≈ 0.619 µM)	-- (not active at 128 mcg/ml)	-- (not active at 128 mcg/ml)	4 µg/mL (≈ 2.48 µM)	2 µg/mL (≈ 1.24 µM)	-- (not active at 128 mcg/ml)	4 µg/mL (≈ 2.48 µM)	4 µg/mL (≈ 2.48 µM)	2 µg/mL (≈ 1.24 µM)	-- (not active at 128 mcg/ml)	-- (not active at 128 mcg/ml)	-- (not active at 128 mcg/ml)
C=CCCCCCCCCC(=O)NC1(C)CC(OC2C(Oc3c4cc5cc3Oc3ccc(cc3Cl)C(O)C(NC(=O)C(CC(C)C)N(C)C(=O)CCCCCCCCC=C)C(=O)NC(CC(N)=O)C(=O)NC5C(=O)NC3C(=O)NC(C(=O)NC(C(=O)O)c5cc(O)cc(O)c5-c5cc3ccc5O)C(O)c3ccc(c(Cl)c3)O4)OC(CO)C(O)C2O)OC(C)C1O (stereo not drawn) [Compound 11, N^van,N^leu --(1-oxo-10-n-decenyl)vancomycin]	32 µg/mL (≈ 18 µM)	32 µg/mL (≈ 18 µM)	64 µg/mL (≈ 35.9 µM)	16 µg/mL (≈ 8.98 µM)	16 µg/mL (≈ 8.98 µM)	8 µg/mL (≈ 4.49 µM)	2 µg/mL (≈ 1.12 µM)	64 µg/mL (≈ 35.9 µM)	128 µg/mL (≈ 71.8 µM)	16 µg/mL (≈ 8.98 µM)	4 µg/mL (≈ 2.24 µM)	128 µg/mL (≈ 71.8 µM)	8 µg/mL (≈ 4.49 µM)	8 µg/mL (≈ 4.49 µM)	8 µg/mL (≈ 4.49 µM)	128 µg/mL (≈ 71.8 µM)	128 µg/mL (≈ 71.8 µM)	128 µg/mL (≈ 71.8 µM)
CCCCCCCCCCCC(=O)N(C)C(CC(C)C)C(=O)NC1C(=O)NC(CC(N)=O)C(=O)NC2C(=O)NC3C(=O)NC(C(=O)NC(C(=O)O)c4cc(O)cc(O)c4-c4cc3ccc4O)C(O)c3ccc(c(Cl)c3)Oc3cc2cc(c3OC2OC(CO)C(O)C(O)C2OC2CC(C)(N)C(O)C(C)O2)Oc2ccc(cc2Cl)C1O (stereo not drawn) [Compound 13, N^leu --(1-oxo-n-dodecyl)vancomycin]	32 µg/mL (≈ 19.6 µM)	128 µg/mL (≈ 78.5 µM)	32 µg/mL (≈ 19.6 µM)	8 µg/mL (≈ 4.9 µM)	8 µg/mL (≈ 4.9 µM)	8 µg/mL (≈ 4.9 µM)	8 µg/mL (≈ 4.9 µM)	-- (not active at 128 mcg/ml)	-- (not active at 128 mcg/ml)	8 µg/mL (≈ 4.9 µM)	8 µg/mL (≈ 4.9 µM)	-- (not active at 128 mcg/ml)	8 µg/mL (≈ 4.9 µM)	8 µg/mL (≈ 4.9 µM)	8 µg/mL (≈ 4.9 µM)	-- (not active at 128 mcg/ml)	-- (not active at 128 mcg/ml)	-- (not active at 128 mcg/ml)
CCC(CC)C(=O)NC1(C)CC(OC2C(Oc3c4cc5cc3Oc3ccc(cc3Cl)C(O)C3NC(=O)C(NC(=O)C5NC(=O)C(CC(N)=O)NC(=O)C(NC(=O)C(CC(C)C)NC)C(O)c5ccc(c(Cl)c5)O4)c4ccc(O)c(c4)-c4c(O)cc(O)cc4C(C(=O)O)NC3=O)OC(CO)C(O)C2O)OC(C)C1O (stereo not drawn) [Compound 22, N^van --(2-ethyl-1-oxo-n-butyl)vancomycin]	128 µg/mL (≈ 82.7 µM)	128 µg/mL (≈ 82.7 µM)	8 µg/mL (≈ 5.17 µM)	2 µg/mL (≈ 1.29 µM)	2 µg/mL (≈ 1.29 µM)	2 µg/mL (≈ 1.29 µM)	2 µg/mL (≈ 1.29 µM)	-- (not active at 128 mcg/ml)	-- (not active at 128 mcg/ml)	8 µg/mL (≈ 5.17 µM)	2 µg/mL (≈ 1.29 µM)	-- (not active at 128 mcg/ml)	2 µg/mL (≈ 1.29 µM)	2 µg/mL (≈ 1.29 µM)	2 µg/mL (≈ 1.29 µM)	-- (not active at 128 mcg/ml)	-- (not active at 128 mcg/ml)	-- (not active at 128 mcg/ml)
CNC(CC(C)C)C(=O)NC1C(=O)NC(CC(N)=O)C(=O)NC2C(=O)NC3C(=O)NC(C(=O)NC(C(=O)O)c4cc(O)cc(O)c4-c4cc3ccc4O)C(O)c3ccc(c(Cl)c3)Oc3cc2cc(c3OC2OC(CO)C(O)C(O)C2OC2CC(C)(NC(=O)C(NC(=O)OCc3ccccc3)C(C)C)C(O)C(C)O2)Oc2ccc(cc2Cl)C1O (stereo not drawn) [Compound 32, N^van-[2-(N--Cbz--amino)-1-oxo-isopentyl]vancomycin]	128 µg/mL (≈ 76.1 µM)	128 µg/mL (≈ 76.1 µM)	32 µg/mL (≈ 19 µM)	8 µg/mL (≈ 4.75 µM)	8 µg/mL (≈ 4.75 µM)	4 µg/mL (≈ 2.38 µM)	2 µg/mL (≈ 1.19 µM)	-- (not active at 128 mcg/ml)	-- (not active at 128 mcg/ml)	8 µg/mL (≈ 4.75 µM)	2 µg/mL (≈ 1.19 µM)	-- (not active at 128 mcg/ml)	4 µg/mL (≈ 2.38 µM)	4 µg/mL (≈ 2.38 µM)	4 µg/mL (≈ 2.38 µM)	-- (not active at 128 mcg/ml)	-- (not active at 128 mcg/ml)	-- (not active at 128 mcg/ml)
